We go through one molecule from ChEMBL document CHEMBL3853350 (ACS Med Chem Lett, 2016).

Data set [1] can be described thus: Fraction unbound in human plasma at 1 uM after 5 hrs by rapid equilibrium dialysis based LC-MS/MS analysis. Type of data set: ADME, cell-free.
Data set [2] can be described thus: Half life in cynomolgus monkey plasma at 0.5 mg/kg, iv by LC/MS/MS analysis. The data set is classed as ADME, organism-based, Macaca fascicularis.
Data set [3] in a line: Fraction unbound in dog plasma at 1 uM after 5 hrs by rapid equilibrium dialysis based LC-MS/MS analysis. Type of data set: ADME, cell-free, Canis lupus familiaris. In general terms: In equilibrium dialysis free small molecules cross a membrane that holds back macromolecules.
Another data set addresses Cytochrome P450 2C19 (Homo sapiens, UniProt P33261). In words: Inhibition of CYP2C19 in human liver microsomes after 5 mins in presence of NADPH by LC-MS/MS analysis. Type of data set: ADME. For orientation: Liver microsomes are vesicles of endoplasmic reticulum, rich in cytochrome P450 enzymes.
A further data set concerns the target Cytochrome P450 2C9 (Homo sapiens, UniProt P11712). In words: Inhibition of CYP2C9 in human liver microsomes after 5 mins in presence of NADPH by LC-MS/MS analysis. Type of data set: ADME.
Data set [4] is described as follows: AUC (0 to infinity) in CD-1 mouse plasma at 5 mg/kg administered via oral gavage measured 24 hrs post dose by LC/MS/MS analysis. The data set is classed as ADME, organism-based. Set-up: dose 5 mg/kg, time infinity, route oral.
The nature of data set [5]: Cmax in CD-1 mouse plasma at 5 mg/kg administered via oral gavage measured 24 hrs post dose by LC/MS/MS analysis. Type of data set: ADME, organism-based. Set-up: dose 5 mg/kg, route oral.
Data set [6] in a line: Clearance in cynomolgus monkey plasma at 0.5 mg/kg, iv measured 24 hrs post dose by LC/MS/MS analysis. The data set is classed as ADME, organism-based, Macaca fascicularis.
Data set [7] can be described thus: Cmax in Sprague-Dawley rat plasma at 5 mg/kg administered via oral gavage measured 24 hrs post dose by LC/MS/MS analysis. Type of data set: ADME, organism-based. Further details: dose 5 mg/kg, route oral.
The nature of data set [8]: Oral bioavailability in Sprague-Dawley rat plasma at 5 mg/kg measured 24 hrs post dose by LC/MS/MS analysis. The data set is classed as ADME, organism-based.
Data set [9] in a line: Half life in human hepatocytes at 1 uM by LC/MS analysis. Type of data set: ADME, cell-based, Hepatocyte.
Data set [10] is described as follows: Half life in Beagle dog plasma at 0.5 mg/kg, iv by LC/MS/MS analysis. The data set is classed as ADME, organism-based, Canis lupus familiaris.
Data set [11] can be described thus: Oral bioavailability in CD-1 mouse plasma at 5 mg/kg measured 24 hrs post dose by LC/MS/MS analysis. Type of data set: ADME, organism-based.
Data set [12] in a line: Cmax in Beagle dog plasma at […] administered via oral gavage measured 24 hrs post dose by LC/MS/MS analysis. The data set is classed as ADME, organism-based, Canis lupus familiaris. Further details: dose 2.5 mg/kg, route oral.
The nature of data set [13]: Volume of distribution at steady state in cynomolgus monkey plasma at 0.5 mg/kg, iv measured 24 hrs post dose by LC/MS/MS analysis. Type of data set: ADME, organism-based, Macaca fascicularis. The note with it: read-out: Vdss.

pIC50: −log10 of the molar value. Where only a bound is given, the exact number is not on record here.

Cytochrome P450 2C9, sequence (P11712 whole entry): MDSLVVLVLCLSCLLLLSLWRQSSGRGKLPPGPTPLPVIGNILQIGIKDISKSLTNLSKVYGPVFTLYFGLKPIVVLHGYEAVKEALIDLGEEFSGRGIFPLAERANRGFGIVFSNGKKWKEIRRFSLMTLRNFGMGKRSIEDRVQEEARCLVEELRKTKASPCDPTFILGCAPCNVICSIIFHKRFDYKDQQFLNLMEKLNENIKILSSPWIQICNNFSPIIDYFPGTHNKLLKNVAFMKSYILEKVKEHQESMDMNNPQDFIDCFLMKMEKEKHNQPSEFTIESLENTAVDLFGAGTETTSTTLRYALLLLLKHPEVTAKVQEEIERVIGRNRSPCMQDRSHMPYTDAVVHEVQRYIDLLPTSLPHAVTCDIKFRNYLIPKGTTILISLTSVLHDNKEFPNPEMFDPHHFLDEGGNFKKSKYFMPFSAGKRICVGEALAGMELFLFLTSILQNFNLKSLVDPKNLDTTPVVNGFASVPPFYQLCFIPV
Cytochrome P450 2C19, sequence (P33261 whole entry): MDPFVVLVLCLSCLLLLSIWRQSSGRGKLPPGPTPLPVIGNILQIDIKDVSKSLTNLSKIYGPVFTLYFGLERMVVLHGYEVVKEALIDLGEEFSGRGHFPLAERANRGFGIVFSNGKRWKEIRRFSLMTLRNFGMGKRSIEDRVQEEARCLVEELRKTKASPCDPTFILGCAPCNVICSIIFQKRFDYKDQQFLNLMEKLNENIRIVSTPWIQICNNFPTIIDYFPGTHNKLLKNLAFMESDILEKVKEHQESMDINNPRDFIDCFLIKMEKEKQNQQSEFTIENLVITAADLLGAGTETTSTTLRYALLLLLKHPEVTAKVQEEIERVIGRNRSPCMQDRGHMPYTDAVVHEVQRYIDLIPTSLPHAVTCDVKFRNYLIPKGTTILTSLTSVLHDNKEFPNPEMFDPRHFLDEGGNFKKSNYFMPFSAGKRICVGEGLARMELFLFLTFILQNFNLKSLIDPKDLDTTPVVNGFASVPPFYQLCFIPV

As to `C[C@H](NC(=O)c1c(N)nn2cccnc12)c1cc2cccc(C#Cc3cnn(C)c3)c2c(=O)n1-c1ccccc1` [EGANELISIB], the fraction unbound (usually free concentration divided by total concentration) at 5 h, 1 µM in [1] is 0.011; in data set [3], 0.028. Moreover, the half-life (usually how long it takes for the measured level to halve) was 4.3 h in data set [2] and 6.7 h in [10]. Further, the pIC50 on Cytochrome P450 2C19 and at Cytochrome P450 2C9 was < 4.70 in each case. Besides, in data set [4], the AUC(0-inf) (usually the area under the concentration-time curve extrapolated to infinity) was 20600 ng·h/mL. The Cmax (as a rule, the maximum level reached in the sampled fluid or tissue) was 3600 nM in data set [5] and 2000 nM in data set [7]. Also, the clearance (usually the rate of elimination divided by the concentration) in data set [6] was found to be 4.3 mL/min/kg. Further, the figures for the bioavailability in [8] and in [11] were 57% and 88%, respectively. For the same molecule, in data set [9], the half-life at 1 µM was > 6 h. Further, in data set [12], the concentration peaked (Cmax at 24 h) at 1900 nM. Further, the Vd in [13] came out at 1.3 L/kg.
